Measured values: patent US10259847B2, “Beta-hairpin peptidomimetics” (POLYPHOR AG, priority 2014, dated 2019)
Where two headings read alike, the source gives them in different places. Where a SMILES comes first, the peptide text is derived from it. Bridges are numbered along the chain shown (N, C = ends). [ ]: non-standard residue; d: D form. Tle = CC(C)(C)[C@H](N)C(=O)O; dDab = NCC[C@@H](N)C(=O)O; NMeA = CN[C@@H](C)C(=O)O; Dab = NCC[C@H](N)C(=O)O; Dap = NC[C@H](N)C(=O)O

Assays:
Type in all cases: cell-based
[1] = system: human red blood cells (hRBC); test: Hemolysis of human red blood cells
Protocol: (§1) Stock solutions were kept at +4° C., light protected.
Percent hemolysis was calculated as follows: (OD540peptide/OD540H2O)×100%.

[2] = system: Escherichia coli ATCC 25922
Protocol: as §1
(§2) The selective antimicrobial activities of the peptides were determined in 96-well plates (Greiner, polystyrene) by the standard NCCLS broth microdilution method (National Committee for Clinical Laboratory Standards 1993. Methods for dilution antimicrobial susceptibility tests for bacteria that grow aerobically, 3rd ed. Approved standard M7-A6; National Committee for Clinical laboratory standards, Wayne, Pa.) with slight modifications. Inocula of the microorganisms were diluted into Mueller-Hinton II (MH, cation adjusted) broth and compared with a 0.5 McFarland standard to give appr. 10^6 colony forming units (CFU)/mL. Aliquots (90 μl) of inoculate were added to 10 μl of MH broth+P-80 (Polysorbate 80, 0.002% final concentration) containing the peptide in serial two-fold dilutions. The following microorganisms were used to determine antibiotic selectivity of the peptides: Escherichia coli ATCC 25922, Klebsiella pneumoniae ATCC 13883 and Acinetobacter baumannii DSM 30008.

[3] = system: Klebsiella pneumoniae ATCC 13883
Protocol: as §1, §2

[4] = system: Acinetobacter baumannii DSM 30008
Protocol: as §1, §2

[5] = 100 μg/mL, 20% hRBC (v/v), 1 h at 37° C.
[6] = Mueller-Hinton broth II, 0.002% P-80, 18-20 hours at 35° C.

SMILES	Hemolysis at 100 μg/mL [1, 5]	Escherichia coli ATCC 25922 MIC [2, 6]	Klebsiella pneumoniae ATCC 13883 MIC [3, 6]	Acinetobacter baumannii DSM 30008 MIC [4, 6]	Hemolysis at 100 μg/mL ([1]; red cells of human, 1 h, 100)	Escherichia coli ATCC 25922 MIC ([2]; ATCC 25922)	Klebsiella pneumoniae ATCC 13883 MIC ([3]; ATCC 13883)	Acinetobacter baumannii DSM 30008 MIC ([4]; DSM 30008)
CC(C)C[C@@H]1NC(=O)[C@H](CCN)NC(=O)[C@H]2CCCN2C(=O)[C@H](C(C)C)NC(=O)[C@@H]2CSSC[C@H](NC1=O)C(=O)N[C@@H](Cc1ccc(O)cc1)C(=O)N[C@@H](C)C(=O)N[C@@H](CCN)C(=O)N[C@@H](CCN)C(=O)N[C@@H](CCN)C(=O)N[C@@H](Cc1c[nH]c3ccccc13)C(=O)N[C@@H](C)C(=O)N[C@@H](C(C)C)C(=O)N2 [Example 1, cyclo(-Leu-Cys-Tyr-Ala-Dab-Dab-Dab-Trp-Ala-Val-Cys-Val-^DPro-Dab-)] (HELM PEPTIDE1{A.[Dab].[Dab].[Dab].W.A.V.C.V.[dP].[Dab].L.C.Y}$PEPTIDE1,PEPTIDE1,8:R3-13:R3|PEPTIDE1,PEPTIDE1,1:R1-14:R2$$$V2.0)	2%	4 µg/mL	2 µg/mL	2.5 µg/mL	–	–	–	–
CC(C)C[C@@H]1NC(=O)[C@H](CCN)NC(=O)[C@H]2CCCN2C(=O)[C@H](C(C)C)NC(=O)[C@@H]2CSSC[C@H](NC1=O)C(=O)N[C@@H](Cc1ccc(O)cc1)C(=O)N[C@@H](C)C(=O)N[C@@H](CCN)C(=O)N[C@H](CCN)C(=O)N[C@@H](CCN)C(=O)N[C@@H](Cc1c[nH]c3ccccc13)C(=O)N[C@@H](C)C(=O)N[C@@H](C(C)C)C(=O)N2 [Example 2, cyclo(-Leu-Cys-Tyr-Ala-Dab-^DDab-Dab-Trp-Ala-Val-Cys-Val-^DPro-Dab-)] (HELM PEPTIDE1{A.[Dab].[NCC[C@@H](N[*:1])C(=O)[*:2]].[Dab].W.A.V.C.V.[dP].[Dab].L.C.Y}$PEPTIDE1,PEPTIDE1,8:R3-13:R3|PEPTIDE1,PEPTIDE1,1:R1-14:R2$$$V2.0)	–	–	–	–	3%	2 µg/mL	2 µg/mL	2.5 µg/mL
CC(C)C[C@@H]1NC(=O)[C@H](CCCCN)NC(=O)[C@H]2CCCN2C(=O)[C@H](C(C)C)NC(=O)[C@@H]2CSSC[C@H](NC1=O)C(=O)N[C@@H](Cc1ccc(O)cc1)C(=O)N[C@@H](C)C(=O)N[C@@H](CCCN)C(=O)N[C@H](CCN)C(=O)N[C@@H](CCN)C(=O)N[C@@H](Cc1c[nH]c3ccccc13)C(=O)N[C@@H](C)C(=O)N[C@@H](C(C)C)C(=O)N2 [Example 3, cyclo(-Leu-Cys-Tyr-Ala-Orn-^DDab-Dab-Trp-Ala-Val-Cys-Val-^DPro-Lys-)] (HELM PEPTIDE1{A.[Orn].[NCC[C@@H](N[*:1])C(=O)[*:2]].[Dab].W.A.V.C.V.[dP].K.L.C.Y}$PEPTIDE1,PEPTIDE1,8:R3-13:R3|PEPTIDE1,PEPTIDE1,1:R1-14:R2$$$V2.0)	–	–	–	–	3.5%	2 µg/mL	4 µg/mL	1 µg/mL
CC(C)C[C@@H]1NC(=O)[C@H](CCCN)NC(=O)[C@H]2CCCN2C(=O)[C@H](C(C)C)NC(=O)[C@@H]2CSSC[C@H](NC1=O)C(=O)N[C@@H](Cc1ccc(O)cc1)C(=O)N[C@@H](C)C(=O)N[C@@H](CCCN)C(=O)N[C@H](CCN)C(=O)N[C@@H](CCN)C(=O)N[C@@H](Cc1c[nH]c3ccccc13)C(=O)N[C@@H](C)C(=O)N[C@@H](C(C)C)C(=O)N2 [Example 4, cyclo(-Leu-Cys-Tyr-Ala-Orn-^DDab-Dab-Trp-Ala-Val-Cys-Val-^DPro-Orn-)] (HELM PEPTIDE1{A.[Orn].[NCC[C@@H](N[*:1])C(=O)[*:2]].[Dab].W.A.V.C.V.[dP].[Orn].L.C.Y}$PEPTIDE1,PEPTIDE1,8:R3-13:R3|PEPTIDE1,PEPTIDE1,1:R1-14:R2$$$V2.0)	–	–	–	–	2.5%	2 µg/mL	4 µg/mL	2 µg/mL
CC(C)C[C@@H]1NC(=O)[C@H](CCN)NC(=O)[C@H]2CCCN2C(=O)[C@H](C(C)C)NC(=O)[C@@H]2CSSC[C@H](NC1=O)C(=O)N[C@@H](Cc1ccc(O)cc1)C(=O)N[C@@H](C)C(=O)N[C@@H](CCCN)C(=O)N[C@H](CCN)C(=O)N[C@@H](CCN)C(=O)N[C@@H](Cc1c[nH]c3ccccc13)C(=O)N[C@@H](C)C(=O)N[C@@H](C(C)C)C(=O)N2 [Example 5, cyclo(-Leu-Cys-Tyr-Ala-Orn-^DDab-Dab-Trp-Ala-Val-Cys-Val-^DPro-Dab-)] (HELM PEPTIDE1{A.[Orn].[NCC[C@@H](N[*:1])C(=O)[*:2]].[Dab].W.A.V.C.V.[dP].[Dab].L.C.Y}$PEPTIDE1,PEPTIDE1,8:R3-13:R3|PEPTIDE1,PEPTIDE1,1:R1-14:R2$$$V2.0)	–	–	–	–	3%	2 µg/mL	2 µg/mL	1 µg/mL
CC(C)C[C@@H]1NC(=O)[C@H](CN)NC(=O)[C@H]2CCCN2C(=O)[C@H](C(C)C)NC(=O)[C@@H]2CSSC[C@H](NC1=O)C(=O)N[C@@H](Cc1ccc(O)cc1)C(=O)N[C@@H](C)C(=O)N[C@@H](CCCN)C(=O)N[C@H](CCN)C(=O)N[C@@H](CCN)C(=O)N[C@@H](Cc1c[nH]c3ccccc13)C(=O)N[C@@H](C)C(=O)N[C@@H](C(C)C)C(=O)N2 [Example 6, cyclo(-Leu-Cys-Tyr-Ala-Orn-^DDab-Dab-Trp-Ala-Val-Cys-Val-^DPro-Dap-)] (HELM PEPTIDE1{A.[Orn].[NCC[C@@H](N[*:1])C(=O)[*:2]].[Dab].W.A.V.C.V.[dP].[NC[C@H](N[*:1])C(=O)[*:2]].L.C.Y}$PEPTIDE1,PEPTIDE1,8:R3-13:R3|PEPTIDE1,PEPTIDE1,1:R1-14:R2$$$V2.0)	–	–	–	–	5%	2 µg/mL	2 µg/mL	1.5 µg/mL
CC[C@H](C)[C@@H]1NC(=O)[C@@H]2CCCN2C(=O)[C@H]2CCCN2C(=O)[C@H](Cc2ccc(O)cc2)NC(=O)[C@@H]2CSSC[C@H](NC1=O)C(=O)N[C@@H](Cc1ccc(O)cc1)C(=O)N[C@@H](CCN)C(=O)N[C@@H](CCCN)C(=O)N[C@H](CCN)C(=O)N[C@@H](CCN)C(=O)N[C@@H](CC(C)C)C(=O)N[C@@H](CCN)C(=O)N[C@@H](C(C)C)C(=O)N2 [Example 7, cyclo(-Ile-Cys-Tyr-Dab-Orn-^DDab-Dab-Leu-Dab-Val-Cys-Tyr-^DPro-Pro-)] (HELM PEPTIDE1{I.C.Y.[Dab].[Orn].[NCC[C@@H](N[*:1])C(=O)[*:2]].[Dab].L.[Dab].V.C.Y.[dP].P}$PEPTIDE1,PEPTIDE1,2:R3-11:R3|PEPTIDE1,PEPTIDE1,1:R1-14:R2$$$V2.0)	–	–	–	–	11%	0.5 µg/mL	0.25 µg/mL	1 µg/mL
CC(C)[C@@H]1NC(=O)[C@@H]2CCCN2C(=O)[C@H]2CCCN2C(=O)[C@H]([C@@H](C)O)NC(=O)[C@@H]2CSSC[C@H](NC1=O)C(=O)N[C@@H](Cc1ccc(O)cc1)C(=O)N[C@@H](CCN)C(=O)N[C@@H](CN)C(=O)N[C@@H](CCN)C(=O)N[C@@H](CCN)C(=O)N[C@@H](Cc1c[nH]c3ccccc13)C(=O)N[C@@H](CCN)C(=O)N[C@@H](C(C)(C)C)C(=O)N2 [Example 8, cyclo(-Val-Cys-Tyr-Dab-Dap-Dab-Dab-Trp-Dab-tBuGly-Cys-Thr-^DPro-Pro-)] (HELM PEPTIDE1{V.C.Y.[Dab].[NC[C@H](N[*:1])C(=O)[*:2]].[Dab].[Dab].W.[Dab].[CC(C)(C)[C@H](N[*:1])C(=O)[*:2]].C.T.[dP].P}$PEPTIDE1,PEPTIDE1,2:R3-11:R3|PEPTIDE1,PEPTIDE1,1:R1-14:R2$$$V2.0)	1%	1 µg/mL	0.5 µg/mL	2 µg/mL	–	–	–	–
CC(C)[C@@H]1NC(=O)[C@H](C)N(C)C(=O)[C@H]2CCCN2C(=O)[C@H](CO)NC(=O)[C@@H]2CSSC[C@H](NC1=O)C(=O)N[C@@H](Cc1ccc(O)cc1)C(=O)N[C@@H](CCN)C(=O)N[C@@H](CN)C(=O)N[C@H](CCN)C(=O)N[C@@H](CCN)C(=O)N[C@@H](Cc1c[nH]c3ccccc13)C(=O)N[C@@H](CCN)C(=O)N[C@@H](C(C)(C)C)C(=O)N2 [Example 9, cyclo(-Val-Cys-Tyr-Dab-Dap-^DDab-Dab-Trp-Dab-tBuGly-Cys-Ser-^DPro-NMeAla-)] (cyclo(CS[dP][NMeA]VCY[Dab][Dap][dDab][Dab]W[Dab][Tle]); disulfide 1-6)	–	–	–	–	6%	0.5 µg/mL	1 µg/mL	1 µg/mL
